Where only a bound is given, the exact number is not on record here.

Data set [1] has as its system non-opiate medication-related constipation. The data set is described as follows: Case Example 2: cetilistat for constipation related to amitriptyline (non-opiate medication). The data set is classed as in vivo, human. On the procedure: A person with fibromyalgia being treated with the tricyclic antidepressant, amitriptyline, suffered from a global pain disorder requiring pain management. They were of average weight, not over-weight. They were treated with amitriptyline that is a known therapeutic agent for mild to moderate fibromyalgia. This tricyclic antidepressant is also known for causing dry mouth, blurry vision and constipation.

For data set [2], the system named is constipation related to menstrual cycle. The data set is described as follows: Case Example 6: cetilistat for constipation related to menstrual cycle. In kind it is in vivo, human. The note with it: cetilistat 60 mg oral once a day with food, as needed. The text has this: This is a case of a person who complained of recurring constipation related to their menstrual cycle. They noticed that a few days before the onset of their menstrual cycle and for the week of their menstrual cycle they develop constipation that aggravates their bloating and abdominal pain. They are not overweight. They have tried over-the-counter laxatives and tried some standard prescription laxatives that caused them to feel more bloated. […] Their doctor gave them a prescription of cetilistat (one 60 mg oral pill once a day with food) to be taken one to three days before the onset of their menstruation. In the fourth week of their period, they noticed normalization of their bowel movement and required to take the cetilistat only as needed. Often they only need to take it three times during their menstrual cycle. […] Typically, they required the cetilistat 3-7 days per cycle. […] Further, the cetilistat may be used as needed as a medication for constipation.

In data set [3] the test system is lazy bowel and age-related constipation. The data set is described as follows: Case Example 3: cetilistat for constipation in person (non-opiate medications, dehydration, lazy bowel). The data set is classed as in vivo, human. The conditions noted are these: cetilistat 60 mg twice daily. The text has this: Person living in a nursing home with mild dementia complained of painful bowel movements causing an anal fissure with bleeding in their rectum. The cause of their constipation was deemed to be due to a combination of non-opiate medications, dehydration, and a lazy bowel. The patient also complained of abdominal distention and some intermittent abdominal discomfort. The patient was not overweight. […] They had abdominal pain with conventional bowel stimulants. […] The cetilistat resolved the constipation in an acute case and allowed for long-term recovery from a constipation-related complication. Further, it was effective in the treatment of lazy bowel and age-related constipation.

Data set [4] relates to irritable bowel syndrome, chronic abdominal pain. The data set is described as follows: Case Example 10: orlistat in person with irritable bowel syndrome. The note with it: over 4 to 6 weeks. In kind it is in vivo, human. An excerpt: This case involves a non-overweight person with a history of irritable bowel syndrome. The person reported chronic abdominal pain and bloating, minor occasional constipation, minor occasional diarrhea, and lower back pain for the past five years. They were otherwise well. They had 2 colonoscopies, and an ultrasound of the abdomen and pelvis, all of which were normal. They were also taking an oral dose of B12. They were on other medications as well. […] There was no rebound or rigidity. They had no enlargement of any organs. They had tenderness globally around their abdomen, tightness of the iliopsoas bilaterally and oblique muscles. Their bowels were tender, and they were chronically uncomfortable and in pain. They were treated with orlistat (120 mg, once or twice a day as needed with food). […] They felt generally better, and was able to stop taking vitamin B12 because the absorption of […] B12 improved with their improved bowel function. Thus, orlistat was useful to treat IBD.

Data set [5] concerns constipation related to dehydration, post-gastroenteritis. The data set is described as follows: Case Example 4: orlistat for constipation related to post-infection and dehydration. The data set is classed as in vivo, human. On the procedure: A person travelled to Mexico and while there developed acute gastroenteritis. The patient was of average weight (not overweight). They began experiencing vomiting and diarrhea while there. They became dehydrated and eventually was transferred to their home in Canada. The virus had cleared one day after arriving back in Canada. They began eating and drinking but had developed constipation related to post-infection and dehydration. They were given orlistat (120 mg orally once daily with food) by their doctor for one week and this resolved their constipation within 24 hours. […] The improvement was such that after seven days that when they stopped the medication (orlistat), they were able to return to their normal diet.

The subject of data set [6] is irritable bowel syndrome and heartburn. In words: Case Example 11: orlistat in person with irritable bowel syndrome and heartburn. In kind it is in vivo, human. The note with it: orlistat 120 mg, one per day on average. The text has this: This example relates to a person with a 20 year history of irritable bowel syndrome and heartburn. The person reported chronic abdominal pain with bloating, occasional constipation or diarrhea, and epigastric discomfort for over 20 years. They had four colonoscopies over that period of time, and 2 endoscopies of the stomach. […] They also had ultrasounds of the abdomen and pelvis which were normal. They had 2 chest x-rays and an MRI of the abdomen, each of which were normal. They were taking Losec™ for their heartburn which was controlled. They were also taking low dose Atenolol™ for their blood pressure as they had developed some minor hypertension. They were otherwise well. […] There were no masses, rebound or rigidity. There were no organs that were tender or enlarged. They complained of persistent heartburn despite being on Losec™ and abdominal pain. They were treated with orlistat (120 mg, twice a day each with a meal to be reduced or increased as required up to three per day). They reported that they only required one per day on average and occasionally a second tablet. […] They became more flexible in their abdomen and lower back. They were more comfortable in their walking. Thus, orlistat was useful to treat IBD.

Data set [7] deals with constipation related to deconditioning/bedridden. The data set is described as follows: Case Example 8: orlistat for constipation related to being bedridden. In kind it is in vivo, human. On the procedure:
His stools and bowel function gradually became more regular allowing for a reduction of dose of the orlistat (to one 120 mg oral pill twice per day with food) as maintenance.

For data set [8], the system named is fibromyalgia, irritable bowel syndrome, chronic abdominal pain. The data set is described as follows: Case Example 9: orlistat in fibromyalgia patient with irritable bowel syndrome. In kind it is in vivo, human. The text has this:
This case involves a person with a 15 year history of fibromyalgia. The person reported chronic pain involving the neck, lower back, migraine headaches, abdominal bloating, and constipation with occasional diarrhea. They had been diagnosed with fibromyalgia about 10 years prior, and had chronic abdominal pain, bloating and a formal diagnosis of irritable bowel syndrome. […] Serology, abdominal x-rays, ultrasound of the abdomen and pelvis, were normal. […] There were no masses or any signs of acute surgical abdomen. They were taking Lyrica™ 75 mg twice a day, Flexeril™ 10 mg twice a day as needed, Percocet™ 2 twice a day as needed, and Celebrex™ 200 mg once a day. They were given orlistat (120 mg, twice a day as needed to take with food), and they noted that their constipation resolved, their bloating resolved, their occasional diarrhea resolved, and their abdominal pain resolved.

Data set [9] concerns opiate-related constipation.
For data set [10], the system named is chronic constipation after bowel resection/colostomy. The data set is described as follows: Case Example 7: orlistat for constipation after partial bowel resection with colostomy. The data set is classed as in vivo, human. The text has this: person suffering from bowel cancer was given a partial bowel resection with a colostomy and bag. They complained that since their bowel surgery they suffered chronic constipation and hard stools. […] It would sometimes be so hard it could injure and cause bleeding to the ostomy site.

Data set [11] relates to paralytic bowel, chronic constipation. The data set is described as follows: Case Example 5: orlistat for paralytic bowel after spinal cord transection. The data set is classed as in vivo, human. The note with it: orlistat 120 mg three times a day with food. The text has this: A person of average weight (not overweight) suffered a thoracic spinal injury with transection of the spinal cord resulting in complete paralysis below the third thoracic vertebrae. They went on to develop full paralysis of their muscles below T-3 including the skeletal muscles and smooth muscles of the gut. They developed a paralytic bowel contributing to chronic constipation with overflow and diarrhea. They required regular manual disempaction and Fleet enemas to manage their chronic constipation. The patient was given orlistat (120 mg one pill three times a day with food) by their doctor.

The mark [12] stands for this setting: orlistat 120 mg once or twice a day.
Where [13] appears, read: orlistat 120 mg twice a day as needed with food.

For `CCCCCCCCCCCCCCCCOc1nc2ccc(C)cc2c(=O)o1` [cetilistat], in [1] (cetilistat 60 mg once per day, one year), the side effects reported result was “no major side effects”. Further, in data set [1] (cetilistat 60 mg orally once per day with food, patient on amitriptyline), the “time to bowel movement” value is at most 24 h. Moreover, in data set [1] (cetilistat one pill per day), the “bowel movements on continued daily treatment” value is given as “regular bowel movements daily”. Moreover, the “outcome after a year of amitriptyline and cetilistat” value in data set [1] (one year) was “good success with treatment of fibromyalgia and daily bowel movements”. For the same compound, in data set [2], the “relief of constipation on days of use” value is “good relief of their constipation with regular, soft bowel movements”. In data set [3], the “abdominal bloating and abdominal pain” value was “resolved”; the bowel movement regularity entry is listed as “regular bowel movements daily”; the “quality of the bowel movement” value is “painless and soft”. Also, in data set [3] (over two weeks), the “anal fissure and rectal bleeding” value is “the anal fissure had healed and the bleeding had stopped”.
`CCCCCCCCCCC[C@@H](C[C@@H]1OC(=O)[C@H]1CCCCCC)OC(=O)[C@H](CC(C)C)NC=O` [orlistat]: in data set [4] (orlistat 120 mg once or twice a day as needed with food), the bloating result was “reduced bloating”. In addition, in data set [4] (setting [12]), the abdominal pain result is on record as “resolution of their abdominal pain”; the diarrhea result is listed as “no episodes of diarrhea”; the “muscles of abdomen and lower back” value was “relaxation of the muscles of their abdomen and lower back”; the “straining with bowel movements” value was “less straining with bowel movements”. Also, the “bowel movements after cessation” value in [5] (after stopping orlistat at seven days) was “continue to be normal”. Moreover, in data set [5] (orlistat 120 mg once daily), the “bowel movements on treatment” value was “normal and regular”. In [5] (orlistat 120 mg orally once daily with food for one week), the “time to resolution of constipation” value was at most 24 h. Also, the bloating result in data set [6] is listed as “great improvement of their bloating”. In addition, in data set [6] (over 4 to 6 weeks), the “abdominal pain and heartburn” value was “great improvement of their abdominal pain and heartburn”. Besides, in data set [7] (orlistat 120 mg once a day increased to three times per day with food, then twice per day as maintenance), the “stool and bowel movements” value is “softening of their stool, and the formation of regular bowel movements daily”. Moreover, the “need for Fleet enemas and disempaction” value in [7] (orlistat, maintenance 120 mg twice per day) is “cessation of the Fleet enemas and the disempaction”. Moreover, in data set [8] (combined medication for over two years), the long-term outcome is recorded as “sustained good results”. In addition, in [8] (setting [13]), the abdominal pain result is “resolved”, the bloating entry is on record as “resolved”, the occasional diarrhea entry is listed as “resolved” and the overall fibromyalgia result is reported as “improvement in their overall fibromyalgia”. Further, the constipation entry in data set [8] (orlistat 120 mg twice a day as needed with food, with Lyrica, Flexeril, Percocet, Celebrex) was “resolved”. For the same compound, the “time to noticed improvement of constipation” value in [9] (orlistat 120 mg BID orally with food, patient on MS Contin 60 mg BID) was at most 24 h. Also, the “bowel movements within one week” value in data set [9] (orlistat 120 mg BID orally with food, within one week) was “daily bowel movements”. Besides, in [9] (orlistat 120 mg BID, one year), the “bowel movements over one year of treatment” value is “good well-formed bowel movements most days” and the side effects reported result is on record as “no major side effects”. Moreover, in [10] (orlistat 120 mg once daily), the abdominal pain result is “no longer had abdominal pain”, the bloating entry is “greatly improved” and the stool consistency result is listed as “softened their stool”. In addition, the “average bowel movement frequency” value in [10] (orlistat 120 mg orally once daily with food) is “once a day”. In data set [11], the bowel formation entry is recorded as “long-term improvement in bowel formation”; the bowel movements entry was “soft and allowing for more regular, daily movements”; the “need for enemas and manual disempaction” value is “significant reduction of therapeutic enemas and manual disempaction”.

The values are drawn from patent publication US9616066B2, “Therapy for constipation” (priority 2012, dated 2017).
